In experiment [1] the target is recombinant GST-tagged MDM2 (Homo sapiens, UniProt Q00987). Kind of experiment: HTRF assay of interaction between p53 peptide and GST-tagged MDM2. Conditions: inhibition of GST-MDM2 (160 ng/ml) binding to biotinylated p53-peptide. An outline of the steps: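 Compounds were preincubated with 160 ng/ml GST-MDM2 and 90 nM N-terminally biotinylated p53-like peptide (final) in 20 mM TBS, 0.02% BSA, 1 mM DTT for 1 h at 37 °C. Eu-anti-GST antibody and streptavidin-APC were added for 30 min at room temperature; binding read as TR-FRET at 665 and 615 nm.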

The next experiment deals with T1, GST-tagged MDMX (Homo sapiens, UniProt O15151).
T1 sequence (O15151 1-490): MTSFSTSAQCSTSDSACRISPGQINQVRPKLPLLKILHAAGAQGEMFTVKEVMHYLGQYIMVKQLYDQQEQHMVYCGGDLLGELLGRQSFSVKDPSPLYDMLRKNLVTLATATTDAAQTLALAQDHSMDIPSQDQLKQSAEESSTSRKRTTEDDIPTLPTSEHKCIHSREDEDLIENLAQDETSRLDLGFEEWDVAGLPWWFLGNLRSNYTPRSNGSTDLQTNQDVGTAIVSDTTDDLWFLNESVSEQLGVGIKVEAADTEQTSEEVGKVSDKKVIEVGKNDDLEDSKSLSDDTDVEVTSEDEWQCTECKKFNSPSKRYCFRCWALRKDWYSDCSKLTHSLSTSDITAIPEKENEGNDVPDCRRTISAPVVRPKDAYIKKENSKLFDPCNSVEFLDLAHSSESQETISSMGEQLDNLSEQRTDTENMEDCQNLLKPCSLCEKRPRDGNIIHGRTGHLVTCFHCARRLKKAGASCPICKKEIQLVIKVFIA
The experiment can be described thus: HTRF binding assay of GST-tagged MDMX to p53 peptide. For orientation: TR-FRET usually uses a lanthanide donor and a delayed reading to cut background.

From US20140148443A1, “Novel Imidazolines as dual inhibitors of MDM2 and MDMX” (priority 2012, published 2014) come the findings set out here.

recombinant GST-tagged MDM2, sequence (Q00987 whole entry): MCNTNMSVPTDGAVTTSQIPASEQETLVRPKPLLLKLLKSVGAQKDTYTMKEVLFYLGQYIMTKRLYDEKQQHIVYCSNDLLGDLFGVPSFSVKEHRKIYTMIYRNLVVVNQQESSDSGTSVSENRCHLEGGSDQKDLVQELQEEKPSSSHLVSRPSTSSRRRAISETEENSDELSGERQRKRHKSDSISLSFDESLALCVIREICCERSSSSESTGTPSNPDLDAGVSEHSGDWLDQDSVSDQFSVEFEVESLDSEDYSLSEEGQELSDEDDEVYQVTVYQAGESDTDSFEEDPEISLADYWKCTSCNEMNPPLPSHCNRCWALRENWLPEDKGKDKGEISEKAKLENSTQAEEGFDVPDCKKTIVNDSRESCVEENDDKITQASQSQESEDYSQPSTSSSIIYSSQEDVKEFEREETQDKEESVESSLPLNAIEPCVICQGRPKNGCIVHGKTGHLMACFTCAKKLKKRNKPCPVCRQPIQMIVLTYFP

Regarding `CCOc1cc(Cl)c(S(C)(=O)=O)cc1C1=N[C@@](C)(c2ccc(Cl)cc2)[C@@](C)(c2ccc(Cl)cc2)N1C(=O)N1CCC(CC(N)=O)CC1` [Example 39, 2-{1-[(4S,5R)-2-(4-Chloro-2-ethoxy-5-methanesulfonyl-phenyl)-4,5-bis-(4-chloro-phenyl)-4,5-dimethyl-4,5-dihydro-imidazole-1-carbonyl]-piperidin-4-yl}-acetamide], the IC50 is 0.0061 µM in experiment [1] and 1.03 µM on GST-tagged MDMX.
The matching figures for `CCOc1cc(Cl)c(S(=O)(=O)NC(C)(C)C)cc1C1=N[C@@](C)(c2ccc(Cl)cc2)[C@@](C)(c2ccc(Cl)cc2)N1C(=O)N1CCN(CCC(O)CO)CC1` (stereo partly drawn) [Example 45, 5-{(4S,5R)-4,5-Bis-(4-chloro-phenyl)-1-[4-(3,4-dihydroxy-butyl)-piperazine-1-carbonyl]-4,5-dimethyl-4,5-dihydro-1H-imidazol-2-yl}-N-tert-butyl-2-chloro-4-ethoxy-benzene sulfonamide]: 0.0129 µM and 1.13 µM.
The like results for `CCOc1cc(Cl)c(S(=O)(=O)N2CCOCC2)cc1C1=N[C@@](C)(c2ccc(Cl)cc2)[C@@](C)(c2ccc(Cl)cc2)N1C(=O)N1CCN(CCCS(C)(=O)=O)CC1` [Example 57, [(4S,5R)-2-[4-Chloro-2-ethoxy-5-(morpholine-4-sulfonyl)-phenyl]-4,5-bis-(4-chloro-phenyl)-4,5-dimethyl-4,5-dihydro-imidazol-1-yl]-[4-(3-methanesulfonyl-propyl)-piperazin-1-yl]-methanone] were, in that order, 0.04 µM and 1.64 µM.
The like results for `CC(C)Oc1cc(Cl)c(S(N)(=O)=O)cc1C1=N[C@@](C)(c2ccc(Cl)cc2)[C@@](C)(c2ccc(Cl)cc2)N1C(=O)N1CCC(CC(N)=O)CC1` [Example 64, 2-{1-[(4S,5R)-2-(4-Chloro-2-isopropoxy-5-sulfamoyl-phenyl)-4,5-bis-(4-chloro-phenyl)-4,5-dimethyl-4,5-dihydro-imidazole-1-carbonyl]-piperidin-4-yl}-acetamide] were, in that order, 0.0062 µM and 0.283 µM.
As for `CCOc1cc(Cl)c(S(C)(=O)=O)cc1C1=N[C@@](C)(c2ccc(Cl)cc2)[C@@](C)(c2ccc(Cl)cc2)N1C(=O)N1CCC(CC(N)=O)CC1` (racemic) [Example 5, 2-{1-[(4S,5R)-2-(4-Chloro-2-ethoxy-5-methanesulfonyl-phenyl)-4,5-bis-(4-chloro-phenyl)-4,5-dimethyl-4,5-dihydro-imidazole-1-carbonyl]-piperidin-4-yl}-acetamide], the IC50 worked out at 0.0153 µM in experiment [1] and 3.66 µM on GST-tagged MDMX.
The like results for `CC(C)Oc1cc(Cl)c(S(=O)(=O)NC(C)(C)C)cc1C1=N[C@@](C)(c2ccc(Cl)cc2)[C@@](C)(c2ccc(Cl)cc2)N1C(=O)N1CCN(CCCS(C)(=O)=O)CC1` [Example 63, 5-{(4S,5R)-4,5-Bis-(4-chloro-phenyl)-1-[4-(3-methanesulfonyl-propyl)-piperazine-1-carbonyl]-4,5-dimethyl-4,5-dihydro-1H-imidazol-2-yl}-N-tert-butyl-2-chloro-4-isopropoxy-benzenesulfonamide] were, in that order, 0.0044 µM and 0.212 µM.
In the case of `CCOc1cc(Cl)c(S(=O)(=O)NC(C)(C)C)cc1C1=N[C@@](C)(c2ccc(Cl)cc2)[C@@](C)(c2ccc(Cl)cc2)N1C(=O)N1CCC(N2CCNC(=O)CC2)CC1` [Example 53, 5-{(4S,5R)-4,5-Bis-(4-chloro-phenyl)-4,5-dimethyl-1-[4-(5-oxo-[1,4]diazepan-1-yl)-piperidine-1-carbonyl]-4,5-dihydro-1H-imidazol-2-yl}-N-tert-butyl-2-chloro-4-ethoxy-benzene sulfonamide], the results for the concentration for half-maximal inhibition (IC50) (in experiment [1]; at GST-tagged MDMX) were 0.0145 µM and 1.11 µM, respectively.

A word on the IC50: it is the point on the concentration scale where inhibition reaches its midpoint.
